Laboratory results published in PMC3465710 (Biochemistry, 2011).
Several values for one entry are separate records, joined by “and”; a condition that tells them apart may be missing. Identical values can stand only once. Like-named read-outs stand apart in the source and are kept apart here.

How the values were obtained:
GLUT1 [1] = biological target: T1, GLUT1 (Homo sapiens, UniProt P11166); type: binding; conditions: for β (cooperativity parameter, second inhibitor molecule) / γ (hetero-cooperativity parameter) / Inhibition (type of modulation of CB binding) / Ki: 50 nM [3H]-CB; for β (cooperativity parameter, second inhibitor molecule) / γ (hetero-cooperativity parameter): eqn 6; for Inhibition (type of modulation of CB binding): competing ligand 0 to 100 μM; for ΔG°: calculated as RT ln(1/KI); for β*γ: product; for α (homo-cooperativity factor): CB inhibition of [3H]-CB binding
T1 sequence (P11166 1-492): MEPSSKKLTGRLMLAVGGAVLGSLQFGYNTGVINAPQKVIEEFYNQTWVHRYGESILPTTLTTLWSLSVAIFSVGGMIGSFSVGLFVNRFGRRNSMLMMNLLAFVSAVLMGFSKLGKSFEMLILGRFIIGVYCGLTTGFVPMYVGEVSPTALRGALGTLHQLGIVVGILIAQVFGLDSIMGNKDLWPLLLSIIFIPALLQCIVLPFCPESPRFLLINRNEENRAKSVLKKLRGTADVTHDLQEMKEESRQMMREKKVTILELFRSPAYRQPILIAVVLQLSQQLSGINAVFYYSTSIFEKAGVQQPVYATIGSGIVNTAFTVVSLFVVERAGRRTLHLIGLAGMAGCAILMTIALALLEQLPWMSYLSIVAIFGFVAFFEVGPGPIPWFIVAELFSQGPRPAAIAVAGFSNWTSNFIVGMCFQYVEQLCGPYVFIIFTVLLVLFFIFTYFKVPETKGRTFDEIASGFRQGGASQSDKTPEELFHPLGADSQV

[2] = test system: [3H]-CB binding to red cell membranes; conditions: cited from earlier work
GLUT1 [3] = biological target: T1, GLUT1; conditions: 4°C; cited from earlier work
GLUT1 [4] = biological target: T1, GLUT1
[5] = biological target: T2, GLUT1-mediated sugar transport in red cells (Homo sapiens, UniProt P11166); assay: Zero-trans 3-O-methylglucose uptake in red cells; type: cell-based
T2 sequence (P11166 1-492): T1 sequence (P11166 1-492)

[6] = biological target: T2, GLUT1-mediated sugar transport in red cells; assay: Equilibrium exchange 3-O-methylglucose uptake in red cells; type: cell-based
GLUT1 [7] = biological target: T1, GLUT1; assay: biochemical
[8] = Ki (affinity of unoccupied GLUT1 for ligand), 4°C, eqn 6, iterative free [I]
[9] = Ki, eqn 6, values in text or legends

## C[C@H]1C/C=C/[C@H]2[C@@H]3O[C@]3(C)[C@@H](C)[C@H]3[C@H](Cc4ccccc4)NC(=O)[C@]32OC(=O)O/C=C/[C@@](C)(O)C1=O [CCE, Cytochalasin E]
GLUT1 [1]; 4°C
  β (cooperativity parameter, second inhibitor molecule): 7917 ± 2935
  γ (hetero-cooperativity parameter): 0.555 ± 0.016
GLUT1 [1]
  Inhibition (type of modulation of CB binding): 3
  ΔG°: -8.88 kcal/mol
  β*γ: 4394
GLUT1 [1]; KL (Table 2, taken from Table 1), cytochalasins, rounded values
  Kd: 100 nM
GLUT1 [1]; [8]
  Ki: 99 ± 8 nM
GLUT1 [1]; [9]
  Ki: 100 nM
GLUT1 [1]; change in ΔG° relative to baseline cytochalasin or forskolin
  ΔΔG°: 0.01 kcal/mol
[2]; read-out: Ki(app) for inhibition of [3H]-CB binding, red cell membranes
  Ki: ≥ 100000 nM

## C=C1[C@@H](C)[C@H]2[C@H](Cc3ccccc3)NC(=O)[C@]23OC(=O)/C=C/[C@H](O)CCC[C@@H](C)C/C=C/[C@H]3[C@@H]1O [CCB, Cytochalasin B]
GLUT1 [3]
  time constant of binding to GLUT1: 1 s
GLUT1 [1]; 4°C
  β (cooperativity parameter, second inhibitor molecule): 6.284 ± 3.849
  γ (hetero-cooperativity parameter): 6.284 ± 3.849
  α (homo-cooperativity factor): 6.284 ±3.849
GLUT1 [1]; 4°C, listed as CB
  β (cooperativity parameter, second inhibitor molecule): 6.3
  γ (hetero-cooperativity parameter): 6.3
  α (homo-cooperativity factor): 6.284 ± 0.558
GLUT1 [1]
  Inhibition (type of modulation of CB binding): 1
  ΔG°: -8.88 kcal/mol
  β*γ: 39
GLUT1 [1]; fit versus measured free CB
  α: 5.441 ± 0.558
GLUT1 [1]; fit versus simulated free CB
  α: 7.01 ± 0.53
GLUT1 [1]; fit versus total CB
  α: 10.0 ± 1.0
[2]
  inhibition of CB binding: high affinity

## C=C[C@@]1(C)CC(=O)[C@]2(O)[C@@]3(C)[C@@H](O)CCC(C)(C)[C@@H]3[C@H](O)[C@H](OC(C)=O)[C@@]2(C)O1 [FSK, forskolin]
GLUT1 [4]
  Kd for forskolin binding relative to Kd for CB binding: at least 20 fold
GLUT1 [4]; FSK inhibition of [3H]-FSK binding, 4°C
  α (homo-cooperativity factor): 2.43 ± 0.23
GLUT1 [4]; fit versus measured free FSK
  α: 2.400 ± 0.212
GLUT1 [4]; fit versus simulated free FSK
  α: 2.434 ± 0.235
GLUT1 [4]; fit versus total FSK
  α: 2.383 ± 2.116
[5]
  Ki: 1900 ± 400 nM
[5]; human erythrocytes
  mode of inhibition of net sugar uptake: noncompetitive inhibitor
[5]; zero-trans, 2 μM FSK
  Kmapp for 3MG uptake in presence of inhibitor: 1.09 ± 0.15 mM
  Vmax for 3MG uptake in presence of inhibitor: 0.055 ± 0.004 mM/L/min
[6]
  Ki: 1200 ± 600 nM
[6]; equilibrium exchange, 2 μM FSK
  Kmapp for 3MG uptake in presence of inhibitor: 48.5 ± 7.3 mM
  Vmax for 3MG uptake in presence of inhibitor: 8.3 ± 0.7 mM/L/min
[6]; human erythrocytes
  mode of inhibition of exchange sugar uptake: competitive inhibitor
GLUT1 [1]; 4°C
  β (cooperativity parameter, second inhibitor molecule): 1.54 ± 0.73
  γ (hetero-cooperativity parameter): 0.93 ± 0.10 and 0.930 ± 0.103 and 0.9
GLUT1 [1]; 4°C, listed as forskolin
  γ (hetero-cooperativity parameter): 0.93
GLUT1 [1]
  Inhibition (type of modulation of CB binding): 1
  ΔG°: -6.95 kcal/mol
  β*γ: 1
GLUT1 [1]; [8]
  Ki: 3280 ± 960 nM
GLUT1 [1]; [9]
  Ki: 3280 ± 980 nM
GLUT1 [7]; KL, FSK inhibition of [3H]-FSK binding (50 nM), 4°C, eqn 7, assumes α = β = γ
  Kd: 2750 ± 787 nM
GLUT1 [7]; Kl, fit versus measured free FSK
  Kd: 2830 ± 754 nM
GLUT1 [7]; Kl, fit versus total FSK
  Kd: 3330 ± 893 nM
